Data reported in ChEMBL document CHEMBL3797107, “Discovery of 5-(methylthio)pyrimidine derivatives as L858R/T790M mutant selective epidermal growth factor receptor (EGFR) inhibitors” (Bioorg Med Chem, 2016).
The source made the active and inactive calls. The calls are words filed in the database; no cut-off is given here.

How the values were obtained:
A-431 = assay: Antiproliferative activity against human A431 cells overexpressing wild-type EGFR after 72 hrs by SRB assay; format: functional, cell-based; conditions: A-431, 72 h
[1] = system: Epidermal growth factor receptor (Homo sapiens), P00533 [L858R,T790M]; assay: Inhibition of EGFR T790M/L858R mutant phosphorylation in EGF-stimulated human NCI-H1975 cells preincubated for 2 hrs followed by EGF addition for 10 mins by western blot analysis; format: cell-based
[2] = system: Epidermal growth factor receptor (Homo sapiens), P00533 [L858R,T790M]; assay: Inhibition of EGFR T790M/L858R mutant in EGF-stimulated human NCI-H1975 cells assessed as decrease in phosphorylated Erk level at 0.001 to 1 uM preincubated for 2 hrs followed by EGF addition for 10 mins by western blot analysis; format: cell-based
NCI-H1975 [3] = assay: Antiproliferative activity against human NCI-H1975 cells expressing EGFR T790M/L858R mutant after 72 hrs by SRB assay; format: functional, cell-based; conditions: NCI-H1975, 72 h
[4] = system: Epidermal growth factor receptor (Homo sapiens), P00533 [L858R,T790M]; assay: Inhibition of EGFR T790M/L858R mutant in EGF-stimulated human NCI-H1975 cells assessed as decrease in phosphorylated Akt level at 0.001 to 1 uM preincubated for 2 hrs followed by EGF addition for 10 mins by western blot analysis; format: cell-based
[5] = molecular target: T1, Epidermal growth factor receptor (Homo sapiens, UniProt P00533); assay: Inhibition of wild-type EGFR in EGF-stimulated human A431 cells assessed as decrease in phosphorylated Erk level preincubated for 2 hrs followed by EGF addition for 10 mins by western blot analysis; format: cell-based; conditions: A-431
[6] = molecular target: T1, Epidermal growth factor receptor; assay: Inhibition of wild-type EGFR (unknown origin) expressed in baculovirus expression system after 1 hr by ELISA
[7] = molecular target: T1, Epidermal growth factor receptor; assay: Inhibition of wild-type EGFR phosphorylation in EGF-stimulated human A431 cells preincubated for 2 hrs followed by EGF addition for 10 mins by western blot analysis; format: cell-based; conditions: A-431
[8] = system: Epidermal growth factor receptor (Homo sapiens), P00533 [L858R,T790M]; assay: Inhibition of EGFR T790M/L858R mutant in EGF-stimulated human NCI-H1975 cells assessed as decrease in phosphorylated Akt level preincubated for 2 hrs followed by EGF addition for 10 mins by western blot analysis; format: cell-based
[9] = system: Epidermal growth factor receptor (Homo sapiens), P00533 [L858R,T790M]; assay: Inhibition of EGFR T790M/L858R mutant in EGF-stimulated human NCI-H1975 cells assessed as decrease in phosphorylated Erk level preincubated for 2 hrs followed by EGF addition for 10 mins by western blot analysis; format: cell-based
[10] = molecular target: T1, Epidermal growth factor receptor; assay: Inhibition of wild-type EGFR in EGF-stimulated human A431 cells assessed as decrease in phosphorylated Akt level preincubated for 2 hrs followed by EGF addition for 10 mins by western blot analysis; format: cell-based; conditions: A-431
[11] = molecular target: Epidermal growth factor receptor (Homo sapiens, UniProt P00533, L858R/T790M); assay: Inhibition of EGFR T790M/L858R mutant (unknown origin) expressed in baculovirus expression system after 1 hr by ELISA
NCI-H1975 [12] = assay: Effect on total tubulin level in human NCI-H1975 cells at 0.001 to 1 uM preincubated for 2 hrs followed by EGF addition for 10 mins by western blot analysis; format: ADME, cell-based; conditions: nci-h1975, 10 min
NCI-H1975 [13] = assay: Effect on total Erk level in human NCI-H1975 cells at 0.001 to 1 uM preincubated for 2 hrs followed by EGF addition for 10 mins by western blot analysis; format: ADME, cell-based; conditions: nci-h1975, 10 min
NCI-H1975 [14] = assay: Effect on total Akt level in human NCI-H1975 cells at 0.001 to 1 uM preincubated for 2 hrs followed by EGF addition for 10 mins by western blot analysis; format: ADME, cell-based; conditions: nci-h1975, 10 min
NCI-H1975 [15] = assay: Effect on total EGFR level in human NCI-H1975 cells at 0.001 to 1 uM preincubated for 2 hrs followed by EGF addition for 10 mins by western blot analysis; format: ADME, cell-based; conditions: nci-h1975, 10 min

Sequence of Epidermal growth factor receptor (Homo sapiens), P00533 [L858R,T790M] (P00533 whole entry T790M/L858R, looked up): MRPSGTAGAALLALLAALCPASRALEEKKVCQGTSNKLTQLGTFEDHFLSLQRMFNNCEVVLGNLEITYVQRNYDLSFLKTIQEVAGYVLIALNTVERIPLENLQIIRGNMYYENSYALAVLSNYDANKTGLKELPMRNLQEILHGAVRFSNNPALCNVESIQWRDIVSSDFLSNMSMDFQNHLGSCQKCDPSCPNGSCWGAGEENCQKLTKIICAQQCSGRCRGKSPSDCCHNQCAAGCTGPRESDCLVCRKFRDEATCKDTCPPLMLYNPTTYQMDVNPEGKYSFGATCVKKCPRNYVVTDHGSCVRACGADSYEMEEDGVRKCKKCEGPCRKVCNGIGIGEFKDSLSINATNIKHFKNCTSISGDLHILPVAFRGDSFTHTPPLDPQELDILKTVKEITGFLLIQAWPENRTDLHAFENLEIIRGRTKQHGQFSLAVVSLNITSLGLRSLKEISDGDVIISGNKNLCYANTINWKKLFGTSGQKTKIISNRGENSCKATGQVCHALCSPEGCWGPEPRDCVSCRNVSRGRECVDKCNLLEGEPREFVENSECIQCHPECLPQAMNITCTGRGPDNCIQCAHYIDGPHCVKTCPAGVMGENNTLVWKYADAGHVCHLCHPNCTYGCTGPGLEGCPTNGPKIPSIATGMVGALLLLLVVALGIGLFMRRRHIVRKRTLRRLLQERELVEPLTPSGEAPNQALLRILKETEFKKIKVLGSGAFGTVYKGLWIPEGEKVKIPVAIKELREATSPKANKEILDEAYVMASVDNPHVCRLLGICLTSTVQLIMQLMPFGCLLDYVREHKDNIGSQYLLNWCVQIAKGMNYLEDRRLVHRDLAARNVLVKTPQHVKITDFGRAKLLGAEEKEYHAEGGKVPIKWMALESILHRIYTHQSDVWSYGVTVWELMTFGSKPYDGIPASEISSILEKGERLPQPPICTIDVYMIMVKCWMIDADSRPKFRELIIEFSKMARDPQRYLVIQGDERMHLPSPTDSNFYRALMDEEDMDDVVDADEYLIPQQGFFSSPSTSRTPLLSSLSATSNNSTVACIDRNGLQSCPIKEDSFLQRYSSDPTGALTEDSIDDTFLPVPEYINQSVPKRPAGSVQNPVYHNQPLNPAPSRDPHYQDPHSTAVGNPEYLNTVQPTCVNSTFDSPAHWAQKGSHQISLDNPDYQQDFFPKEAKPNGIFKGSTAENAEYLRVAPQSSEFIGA
Sequence of Epidermal growth factor receptor (Homo sapiens, UniProt P00533, L858R/T790M) (P00533 25-1210 T790M/L858R limits assumed): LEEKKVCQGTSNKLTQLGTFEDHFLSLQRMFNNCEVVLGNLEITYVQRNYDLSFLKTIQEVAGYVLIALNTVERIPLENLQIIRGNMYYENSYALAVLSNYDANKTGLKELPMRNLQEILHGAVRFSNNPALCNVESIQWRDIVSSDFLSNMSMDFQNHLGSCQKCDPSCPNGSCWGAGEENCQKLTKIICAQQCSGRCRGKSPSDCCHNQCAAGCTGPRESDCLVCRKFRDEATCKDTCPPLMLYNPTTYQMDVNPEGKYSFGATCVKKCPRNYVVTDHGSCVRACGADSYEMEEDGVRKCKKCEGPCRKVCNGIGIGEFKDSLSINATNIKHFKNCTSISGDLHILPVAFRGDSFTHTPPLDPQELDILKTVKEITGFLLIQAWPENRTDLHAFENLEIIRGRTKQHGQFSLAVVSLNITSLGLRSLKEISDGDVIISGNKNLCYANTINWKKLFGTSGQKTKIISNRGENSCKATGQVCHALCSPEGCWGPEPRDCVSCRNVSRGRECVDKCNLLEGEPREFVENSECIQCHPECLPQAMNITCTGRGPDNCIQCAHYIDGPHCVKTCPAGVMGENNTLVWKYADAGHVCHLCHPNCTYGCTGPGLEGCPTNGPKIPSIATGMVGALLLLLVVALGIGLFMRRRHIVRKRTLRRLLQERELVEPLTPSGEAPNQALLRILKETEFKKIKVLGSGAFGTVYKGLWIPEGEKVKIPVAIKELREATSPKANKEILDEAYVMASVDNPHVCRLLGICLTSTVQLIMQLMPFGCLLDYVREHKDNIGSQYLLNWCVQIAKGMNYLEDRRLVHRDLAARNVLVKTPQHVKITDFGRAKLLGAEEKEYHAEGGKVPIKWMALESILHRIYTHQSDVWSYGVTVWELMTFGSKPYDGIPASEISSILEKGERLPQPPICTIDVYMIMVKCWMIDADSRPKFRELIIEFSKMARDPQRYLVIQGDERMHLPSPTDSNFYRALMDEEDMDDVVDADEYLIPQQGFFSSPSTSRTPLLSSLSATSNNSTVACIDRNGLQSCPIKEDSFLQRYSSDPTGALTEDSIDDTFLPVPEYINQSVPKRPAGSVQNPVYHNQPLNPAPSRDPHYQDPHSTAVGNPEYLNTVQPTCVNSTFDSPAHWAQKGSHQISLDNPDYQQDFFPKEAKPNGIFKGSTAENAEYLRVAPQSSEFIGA
T1 sequence (P00533 whole entry): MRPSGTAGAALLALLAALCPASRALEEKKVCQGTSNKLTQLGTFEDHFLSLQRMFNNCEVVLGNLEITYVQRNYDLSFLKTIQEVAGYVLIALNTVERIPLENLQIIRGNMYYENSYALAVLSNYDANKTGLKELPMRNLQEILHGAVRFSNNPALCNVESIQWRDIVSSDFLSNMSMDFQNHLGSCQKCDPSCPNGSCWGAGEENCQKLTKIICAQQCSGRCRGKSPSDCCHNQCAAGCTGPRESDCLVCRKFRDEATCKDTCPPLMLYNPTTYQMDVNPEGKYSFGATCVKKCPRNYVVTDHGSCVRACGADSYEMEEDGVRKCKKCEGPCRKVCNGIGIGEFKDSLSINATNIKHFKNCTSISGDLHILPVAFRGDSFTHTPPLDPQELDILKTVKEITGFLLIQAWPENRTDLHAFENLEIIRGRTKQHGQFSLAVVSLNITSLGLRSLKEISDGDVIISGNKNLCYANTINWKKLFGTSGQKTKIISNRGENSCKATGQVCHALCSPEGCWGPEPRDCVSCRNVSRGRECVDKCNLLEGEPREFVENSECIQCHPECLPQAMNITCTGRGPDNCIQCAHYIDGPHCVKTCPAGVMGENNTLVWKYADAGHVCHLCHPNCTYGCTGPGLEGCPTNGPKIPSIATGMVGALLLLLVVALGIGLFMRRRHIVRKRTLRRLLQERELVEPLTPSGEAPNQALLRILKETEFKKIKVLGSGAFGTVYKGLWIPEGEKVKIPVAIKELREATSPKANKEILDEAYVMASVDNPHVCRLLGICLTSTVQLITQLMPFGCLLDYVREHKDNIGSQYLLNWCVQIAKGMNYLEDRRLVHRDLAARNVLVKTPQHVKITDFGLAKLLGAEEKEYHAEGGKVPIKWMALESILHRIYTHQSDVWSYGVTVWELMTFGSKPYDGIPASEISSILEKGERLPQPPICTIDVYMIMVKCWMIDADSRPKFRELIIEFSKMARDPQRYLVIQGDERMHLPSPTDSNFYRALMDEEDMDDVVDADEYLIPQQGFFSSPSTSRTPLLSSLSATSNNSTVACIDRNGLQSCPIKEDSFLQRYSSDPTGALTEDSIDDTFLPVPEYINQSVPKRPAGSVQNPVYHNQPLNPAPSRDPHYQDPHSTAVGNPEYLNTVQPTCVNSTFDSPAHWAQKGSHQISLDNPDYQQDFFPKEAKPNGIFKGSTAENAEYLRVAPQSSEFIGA

SMILES | IC50 (A-431) [nM] | inhibition [1] | inhibition [2] | IC50 (NCI-H1975 [3]) [nM] | inhibition [4] | inhibition [5] | IC50 [6] [nM] | inhibition [7] | inhibition [8] | inhibition [9] | inhibition [10] | IC50 [11] [nM] | Activity (NCI-H1975 [12]) | Activity (NCI-H1975 [13]) | Activity (NCI-H1975 [14]) | Activity (NCI-H1975 [15])
C=CC(=O)Nc1cccc(Oc2nc(Nc3ccc(N4CCN(C(C)=O)CC4)cc3OC)ncc2C(F)(F)F)c1 | 1880 | Dose-dependent effect | Active | 88 | Active |  |  |  |  |  |  |  |  |  |  | 
C=CC(=O)Nc1cccc(Oc2nc(Nc3ccc(N4CCN(C(C)=O)CC4)cc3OC(F)F)ncc2SC)c1 | 4650 | Dose-dependent effect |  | 20 |  | Dose-dependent effect | 38.8 | Dose-dependent effect | Dose-dependent effect | Dose-dependent effect | Dose-dependent effect | 2.8 |  |  |  | 
C=CC(=O)Nc1cccc(Oc2nc(Nc3ccc(N4CCN(C(=O)C(C)C)CC4)cc3OC)ncc2SC)c1 | 2010 |  |  | 200 |  |  | 174 |  |  |  |  | 3.6 |  |  |  | 
C=CC(=O)Nc1cccc(Oc2nc(Nc3ccc(N4CCN(C(=O)CC)CC4)cc3OC)ncc2SC)c1 | 4420 | Dose-dependent effect |  | 148 |  | Dose-dependent effect | 154 | Dose-dependent effect | Dose-dependent effect | Dose-dependent effect | Dose-dependent effect | 5.8 |  |  |  | 
C=CC(=O)Nc1cccc(Oc2nc(Nc3ccc(N4CCN(C(=O)C(F)(F)F)CC4)cc3OC)ncc2SC)c1 | 1190 |  |  | 404 |  |  | 248 |  |  |  |  | 4.4 |  |  |  | 
C=CC(=O)Nc1cccc(Oc2nc(Nc3ccc(N4CCN(C(=O)CC)CC4)cc3OC(F)F)ncc2SC)c1 | 4920 | Dose-dependent effect |  | 88 |  | Dose-dependent effect | 46.4 | Dose-dependent effect | Dose-dependent effect | Dose-dependent effect | Dose-dependent effect | 3.7 |  |  |  | 
C=CC(=O)Nc1cccc(Oc2nc(Nc3ccc(N4CCN(C)CC4)cc3OC)ncc2Cl)c1 |  |  |  | 95 |  |  |  |  |  |  |  |  |  |  |  | 
C=CC(=O)Nc1cccc(Oc2nc(Nc3ccc(N4CCN(C)CC4)cc3OC)ncc2SC)c1 | 3880 | Dose-dependent effect | Active | 167 | Active |  | 272 |  |  |  |  | 0.4 | Non-toxic | Non-toxic | Non-toxic | Non-toxic
C=CC(=O)Nc1cccc(Oc2nc(Nc3ccc(N4CCN(C(=O)C(C)(C)C)CC4)cc3OC)ncc2SC)c1 | 9220 |  |  | 577 |  |  | 410 |  |  |  |  | 9.6 |  |  |  | 
C=CC(=O)Nc1cccc(Oc2nc(Nc3ccc(N4CCCN(C(C)=O)CC4)cc3OC)ncc2SC)c1 | 4300 |  |  | 573 |  |  | 389 |  |  |  |  | 1.8 |  |  |  | 
C=CC(=O)Nc1cccc(Oc2nc(Nc3ccc(N4CCN(C(C)=O)CC4)cc3OC)ncc2SC)c1 | 4580 |  |  | 194 |  |  | 87.5 |  |  |  |  | 0.7 |  |  |  | 
C=CC(=O)Nc1cccc(Oc2nc(Nc3ccc(N4CCN(S(C)(=O)=O)CC4)cc3OC)ncc2SC)c1 | > 10000 |  |  | 1690 |  |  | 730 |  |  |  |  | 7.3 |  |  |  | 
